Results published in US11866394B2, “Prodrugs of hydroxamate-based GCPII inhibitors” (The Johns Hopkins University, priority 2016, dated 2024).

Key:
[1] = Subcutaneous plasma and sciatic nerve pharmacokinetic studies in mice; type: in vivo; conditions: 10 mg/kg equivalent s.q., 10-120 min post dose
Procedure: Bioanalysis of parent and intact prodrug in plasma and tissues: Prior to extraction, frozen samples were thawed on ice. For plasma, 50 μL of the sample was transferred into siliconized microcentrifuge tubes. For sciatic nerves, the samples were weighed in a 1.7 mL tubes and homogenized in 5× the volume of methanol. The calibration curves were prepared using naïve plasma and sciatic nerves in a concentration range of 50-10000 pmol/g or pmol/mL. Sample preparation involved a single liquid extraction by addition of 300 μL of methanol with internal standard (losartan 200 nM in methanol), followed by vortexing for 30 s and then centrifugation at 10,000×g for 10 min. Supernatant (about 250 μL) was transferred and evaporated to dryness at 40° C. under a gentle stream of nitrogen. The residue was reconstituted with 50 μL of 30% acetonitrile and analysed by LC/MS/MS.
Chromatographic analysis was performed using an Accela™ ultra high-performance system consisting of an analytical pump, and an autosampler coupled with TSQ Vantage mass spectrometer (Thermo Fisher Scientific Inc., Waltham, MA). […] The mobile phase used was composed of 0.1% formic acid in acetonitrile and 0.1% formic acid in H2O with gradient elution, starting with 10% (organic) linearly increasing to 99% up to 2.5 min, maintaining at 99% (2.5-3.5 min) and reequlibrating to 10% by 4.5 min. The total run time for each analyte was 4.5 min. The mass transitions (M−H)− used for Compound 50 were 280.077>175.168, 203.156; and for losartan were 420.895>127.040, 179.108.

[2] = In vitro metabolic stability in human plasma; type: in vitro ADME; conditions: 37° C.
Procedure: (§1) For metabolic stability, plasma (mouse, and human) and liver microsomes (mouse and human) were used. For stability, prodrugs (10 μM) were spiked in each matrix and incubated in an orbital shaker at 37° C. At predetermined times (0, 30 and 60 min), 100 μL aliquots of the mixture in triplicate were removed and the reaction quenched by addition of three times the volume of ice cold acetonitrile spiked with the internal standard (losartan 5 μM). The samples were vortexed for 30 s and centrifuged 12000 g for 10 min. 50 μL supernatant diluted with 50 μL water was transferred to a 250 μL polypropylene vial sealed with a Teflon cap. Prodrug disappearance was monitored over time using a liquid chromatography and tandem mass spectrometry (LC/MS/MS) method as described below.
(§2) For LC/MS/MS, prodrugs were separated with Thermo Scientific Accela UPLC system coupled to Accela open autosampler on an Agilent C18 (100×2.1 mm id) UPLC column. The autosampler was temperature controlled and operating at 10° C. […] The column effluent was monitored using TSQ Vantage triple-quadrupole mass spectrometric detector, equipped with an electrospray probe set in the positive ionization mode. […]
(§3) For quantification of compound remaining, disappearance of prodrugs was measured from ratio of peak areas of analyte to IS. Percentage remaining was calculated in the following manner: […]

[3] = In vitro metabolic stability in mouse plasma; type: in vitro ADME; conditions: 37° C.
Procedure: as §1, §2, §3

[4] = tested on: rat chronic constriction injury (CCI) model of neuropathic pain; assay: Chronic constrictive injury (CCI) model of neuropathic pain, thermal hyperalgesia; type: in vivo; conditions: oral daily, 3 mg/kg dose equivalent of 1 (50), 4.6 mg/kg/day for 12
Description: All experimental protocols were approved by the Institutional Animal Care and Use Committee at Johns Hopkins University (Baltimore, MD) and adhered to all of the applicable institutional and governmental guidelines for the humane treatment of laboratory animals. Male Sprague-Dawley rats (200-250 g; n=10-15 per group) were subjected to peripheral neuropathy injury by constriction of the sciatic nerve performed according to methods described previously. (Novakova, et al., 2016; Bennett, et al., 1988; Attal, et al., 1990) In brief, the common sciatic nerve was exposed and 4 ligatures (4.0 chromic gut) tied loosely around it with 1 mm spacing. Wound clips were used to close wounds and animals were returned to home cages for recovery. Hyperalgesia testing was initiated 10 days post-surgery. Pain sensitivity was assessed by determining withdrawal latencies in response to a constant thermal stimulus directed to the plantar surface of the hind paw using a Basile Plantar apparatus (Ugo Basile, Vaarese, Italy) according to the method described by Hargreaves et al. (Hargreaves, et al., 1988) Apparatus was calibrated so that normal rats respond to the stimulus within 15 sec of application. Withdrawal latency (i.e., the time taken for the rat to withdraw its paw from the heat source) was measured to the nearest 0.1 sec. The “difference in score” was calculated by subtracting the average latency of the paw on the non-ligated versus ligated side. Each animal was tested during two experimental sessions per week, with three days allowed to elapse between test sessions. Test agents, prodrug 12 (3 mg/kg equivalent of 1), or gabapentin (50 mg/kg and 100 mg/kg po) as a positive control were dosed daily throughout the study via oral gavage and one hour before testing on experimental days. Statistical analysis with students t-test was used to determine differences between control and treatment group.

[5] = tested on: rat chronic constriction injury (CCI) model of neuropathic pain; assay: as above; type: in vivo; conditions: 1 mg/kg subcutaneous dose (dose equivalent of 50)
[6] = Oral plasma pharmacokinetic studies in mice; type: in vivo; conditions: mice (n=3), 10 mg/kg equivalent dose, plasma 30 min post dose
Procedure: All pharmacokinetic studies in mice were conducted according to protocols approved by the Animal Care and Use Committee at Johns Hopkins University (Baltimore, MD). Briefly, male CD 1 mice between 25 g and 30 g were obtained from Harlan Laboratories (Indianapolis, Indiana), and maintained on a 12-hour light-dark cycle with ad libitum access to food and water.
Compound 1 and its prodrugs were administered to male mice as a single (p.o.) dose of 10 mg/kg equivalent. Dosing solutions were prepared on the day of the experiment in 50 mM HEPES buffered saline and pH adjusted to 7.4. The mice were sacrificed by pentobarbital injection at 30 minutes post drug administration, and blood collected via cardiac puncture was placed into iced heparin-coated BD microtainers. Blood samples were spun at 2,000 g for 15 minutes, plasma was removed and stored at −80° C. until LC-MS analysis as previously described. (Novakova, et al., 2016) Briefly, chromatographic analysis was performed using an Accela™ ultra high-performance system consisting of an analytical pump, and an autosampler coupled with TSQ Vantage mass spectrometer (Thermo Fisher Scientific Inc., Waltham, MA). […]
Bioanalysis of parent and intact prodrug in plasma and tissues: Prior to extraction, frozen samples were thawed on ice. […] The residue was reconstituted with 50 μL of 30% acetonitrile and analysed by LC/MS/MS. […]

| SMILES | plasma (systemic) levels of active compound 50 after subcutaneous dosing ([1]; plasma) | sciatic nerve exposure of active compound 50 after subcutaneous dosing ([1]; sciatic nerve) | metabolic stability in human plasma [2] | metabolic stability in mouse plasma [3] | antinociceptive effect on thermal hyperalgesia, ligated side [4] | reversal of thermal hyperalgesia [5] | release / plasma exposure of active compound 50 after oral dosing [6] |
| --- | --- | --- | --- | --- | --- | --- | --- |
| CC(=O)ONC(=O)CCC(Cc1ccc(C(=O)O)cc1)C(=O)O (stereo not shown) [Compound 7, 4-(5-(Acetoxyamino)-2-carboxy-5-oxopentyl)benzoic acid] | high systemic levels | excellent nerve exposure | moderately stable | moderately stable | efficacious | efficacious |  |
| CC(=O)ONC(=O)CCC(Cc1cccc(C(=O)O)c1)C(=O)O (stereo not shown) [Compound 34, 3-(5-(Acetoxyamino)-2-carboxy-5-oxopentyl)benzoic acid] |  |  |  |  |  |  | best release |
